Drawing on patent US20220296566A1, “COMBINATION PRODUCT CONTAINING LIMONOID COMPOUND AND ALPHA-GLUCOSIDASE INHIBITOR” (ZHEJIANG YANGSHENGTANG INSTITUTE OF NATURAL MEDICATION CO., …, priority 2019, published 2022), this text covers Blood glucose value and Insulin for one compound.

Structures are written as SMILES.

Holding throughout (assay type): in vivo
Test [1] concerns db/db mice. The experiment in a line: Blood glucose in mouse type II diabetes model, db/db mice (Example 4). The settings on record: single agent 0.2 g/kg per day by gavage, two weeks, 1 h after last administration, mean ± SD. An excerpt: (§1) Effects of limonoid compound, acarbose or combination thereof on blood glucose and insulin in mouse type II diabetes model
(§2) In the present embodiment, the limonoid compound was selected from nomilin, deacetylnomilin, nomilin acid, deacetylnomilin acid glycoside, and acarbose single administration group, nomilin single administration group, deacetylnomilin single administration group, nomilin acid single administered group, deacetylnomilin acid glycoside single administration group, and respective combination thereof with acarbose administration groups were set.
Conditions for experimental feeding: as type II diabetes model mice, 6-week-old SPF-grade db/db mice were purchased from the Nanjing Model Biology Institute, and subjected to experimental feeding after 7 days of preliminary feeding. […]
Gavage doses: nomilin at a dose of 0.2 g/kg was gavaged per day for the nomilin group, deacetylnomilin at a dose of 0.2 g/kg was gavaged per day for the deacetylnomilin group, nomilin acid at a dose of 0.2 g/kg was gavaged per day for the nomilin acid group, deacetylnomilin acid glycoside at a dose of 0.2 g/kg was gavaged per day for the deacetylnomilin acid glycoside group, acarbose at a dose of 0.2 g/kg was gavaged per day for the acarbose group, nomilin at a dose of 0.1 g/kg and acarbose at a dose of 0.1 g/kg were simultaneously gavaged per day for the nomilin combination group, nomilin acid at a dose of 0.1 g/kg and acarbose at a dose of 0.1 g/kg were simultaneously gavaged per day for the nomilin acid combination group, deacetylnomilin at a dose of 0.1 g/kg and acarbose at a dose of 0.1 g/kg were simultaneously gavaged per day for the deacetylnomilin combination group, deacetylnomilin acid glycoside at a dose of 0.1 g/kg and acarbose at a dose of 0.1 g/kg were simultaneously gavaged per day for the deacetylnomilin acid glycoside combination group, the gavage volume was 10 mL/kg, and the normal group and the model group were administrated with 10 mL/kg of distilled water. […] The data were expressed as mean and standard deviation. […]

The test system of test [2] is db/db mice. The test can be described thus: Serum insulin by Elisa in db/db mice (Example 4). The settings on record: single agent 0.2 g/kg per day by gavage, two weeks, mean ± SD.
Excerpt: as §1, §2
Conditions for experimental feeding: as type II diabetes model mice, 6-week-old SPF-grade db/db mice were purchased from the Nanjing Model Biology Institute, and subjected to experimental feeding after 7 days of preliminary feeding. It should be noted that the conditions for raising the mice were as follows: the temperature was 23±1° C., the humidity was 55±10%, the lights were turned on between 7 am and 7 pm (the lights were turned off at other time), and the mice were allowed to freely take in water and feed. The experimental feed was mouse growth-stable feed (GB M2118), and the daily feeding and management of the animals were under the responsibility of the animal security department, which provided the animals with sufficient diet and fresh drinking water daily. […]

A further test deals with STZ mice. The experiment in a line: Blood glucose in STZ mouse pancreatic islet β-cell injury model (Example 3). The settings on record: STZ ICR mice; single agent 0.1 g/kg per day by gavage, two weeks; 1 h after last administration; mean ± SD. From the text:
Effects of limonoid compound, acarbose or combination thereof on blood glucose in mouse pancreatic islet (β-cell injury model In this example, a mouse pancreatic islet (β-cell injury model was established by modeling ICR mice with streptozotocin (STZ) (Li Nan et al., Protective effect of pine pollen on kidney damage in diabetic nephropathy mice, Science and Technology Review, 2014, 32 (4/5): 95-99), and used to complete the evaluation of hypoglycemic effect in animals (this model could simulate pancreatic islet (β-cell damage state of type I and type II diabetics). The limonoid compound was selected from the group consisting of […], and […] glycoside, and acarbose single administration group, […] single administration group, […] single administration group, […] glycoside singe administration group, and respective combination thereof with acarbose administration groups were set. Conditions of experimental feeding: ICR mice (20±2 g), aged 6 weeks, purchased from Zhejiang Academy of Medical Sciences, and subjected to experimental feeding after 7 days of preliminary feeding. […] The data were expressed as mean and standard deviation. The data before and after were analyzed by t-test, and P<0.05 was considered statistically significant.

As to `C[C@H]1O[C@H](O[C@H]2[C@H](O)[C@@H](O)[C@@H](O[C@H]3[C@H](O)[C@@H](O)C(O)O[C@@H]3CO)O[C@@H]2CO)[C@H](O)[C@@H](O)[C@@H]1N[C@H]1C=C(CO)[C@@H](O)[C@H](O)[C@H]1O` (stereo partly drawn) [Acarbose, acarbose], the Blood glucose value in the test on db/db mice [1] was determined as 13.6 ± 2.9 mmol/L; in the test on STZ mice it was 20.6 ± 4.5 mmol/L. Moreover, the Insulin in the test with db/db mice [2] was 8.45 ± 2.21 pg/mL.
